The values below come from paper PMC7175281, “Polyphenolic Compounds from Lespedeza Bicolor Root Bark Inhibit Progression of Human Prostate Cancer Cells via Induction of Apoptosis and Cell Cycle Arrest” (Biomolecules, 2020).

The structures appear in SMILES notation. “Also recorded” adds a separate entry of the source. Some results are limits rather than exact numbers.

Experiment [1] concerns MRC-9 human non-cancer fibroblast cells. As to the kind of experiment: MTT assay, MRC-9 non-cancer fibroblasts. Format: cell-based. The settings on record: treated for 48 h. The procedure:
(§1) The human prostate cancer cell lines PC-3 [docetaxel-resistant, androgen-independent, AR-FL(-), AR-V7(-)], 22Rv1 [docetaxel-sensitive, androgen-independent, AR-FL(+), AR-V7(+)], and the human non-cancer fibroblast cell line MRC-9 were used. PC-3 and 22Rv1 were purchased from ATCC (Manassas, VA, USA). MRC-9 cells were kindly donated by Prof. Dr. med. Sonja Loges (University Medical Center Hamburg-Eppendorf, Hamburg, Germany). Cells were cultured according to the manufacturers’ protocol in 10% FBS/RPMI (PC-3 and 22Rv1) or 10% FBS/DMEM (MRC-9) medium.
(§2) In vitro drug sensitivity MTT assay was performed as previously described. In total, 6000 cells/well were seeded in 96-well plates, incubated overnight, and treated with the investigated drugs for 48 h.
For orientation: Tetrazolium dyes change colour on reduction, which living cells bring about.

Experiment [2] relates to PC-3 human prostate cancer cells. As to the kind of experiment: MTT assay, PC-3 cells. Format: cell-based. Particulars: for IC50: PC-3 cells, MTT, treated for 48 h; for Selectivity index (MRC-9 vs. PC-3): [IC50 in MRC-9 cells] / [IC50 in PC-3 cells]. The procedure:
as §1, §2

In experiment [3] the test system is 22Rv1 human prostate cancer cells. The experiment is described as follows: MTT assay, 22Rv1 cells. Format: cell-based. Particulars: treated for 48 h. The method, then: as §1, §2
Experiment [4] concerns CDK1–CDK9 mRNA in PC-3 cells. As to the kind of experiment: qPCR of CDK1-CDK9 mRNA expression. Format: cell-based, human. The settings on record: 24 h, normalized to GAPDH (Figure 5). The procedure:
The CDKs gene expression was measured using qPCR technique. PC-3 cells were seeded in Petri dishes (1 × 10^6 cells per ø 6 cm dish in 5 mL) in standard culture media, incubated overnight and treated with the investigated drugs in the fresh culture media for 24 h. Cells were harvested using the cell scraper, washed with PBS and homogenized using QIAshredder (QIAGEN, Hilden, Germany). The total RNA was isolated using PureLink® RNA Mini Kit (Invitrogen, Carlsbad, CA, USA) and the on-column DNA digestion using PureLink™ DNase (Invitrogen). Correspondent RNA (2 µg in 30 µL) and was transcribed into cDNA using Maxima First Strand cDNA Synthesis Kit for RT-qPCR (Thermo Scientific, Vilnius, Lithuania). The following qPCR was performed using 2X KAPA SYBR FAST qPCR Master Mix Optimized for Roche LightCycler 480 (KAPA biosystems, Worburn, MA, USA) according to the manufacturer’s protocol. In total, 20 ng of the template cDNA and 2 pmol of primers were used for each reaction. The PCR conditions were 30 s at 95 °C, followed by 40 cycles of 15 s at 95 °C, 5 s at melting temperature (Tm), and 26 s at 72 °C (fluorescence measurement). Melting curve analysis was performed under the following conditions directly after the PCR run: 10 s at 95 °C, 60 s at 65 °C and 1 s at 97 °C. Relative gene expression was calculated using the 2^-∆∆CT method. The expression of CDKs was normalized to GAPDH gene expression. The analysis was performed using primers, purchased from Eurofins MWG-Biotech AG (Ebersberg, Germany).
Due to the significant alterations of the cell cycle, we further investigated the effects of the isolated compounds on the cyclin-dependent kinases (CDKs). These proteins are known to control proliferation as well as some apoptotic processes. We have examined the expression of mRNAs corresponding to the nine most studied CDKs known to be involved in the cell cycle progression of cancer cells, namely, CDK1–CDK9. […] Remarkably, these effects correlated well with the cytotoxicity of the isolated compounds.
Figure 5 Expression of mRNA correspondent to CDK1-9 in PC-3 cells treated with the isolated compounds 1–8 for 24 h. The target gene expression was normalized to GAPDH gene expression. * p ≤ 0.05 (Student’s t-test).
A general note: In qPCR the cycle at which signal appears reflects the starting amount.

Experiment [5] concerns PC-3 cells. As to the kind of experiment: DNA fragmentation / apoptosis induction by flow cytometry (PI staining, sub-G1). Format: cell-based, human. The settings on record: PC-3 cells, 0.5, 1, 5 and 10 µM, 24 h (Figure 3). The procedure: (§3) The effect of the compounds on apoptosis induction and cell cycle progression was analyzed by flow cytometry technique using PI staining as reported before. Cells (0.2 × 10^6 cells/well) were seeded in six-well plates, incubated overnight, and treated with the investigated drugs for 48 h. The cells were further harvested, fixed with 70% EtOH/H2O, stained with propidium iodide (PI), and analyzed using a FACS Calibur machine (BD Bioscience, San Jose, CA, USA). The results were quantified using BD Bioscience Cell Quest Pro software (v.5.2.1., BD Bioscience).
To investigate the mechanism of action contributing to the cytotoxicity in PC-3 cells, we investigated the effects on DNA fragmentation, a well-established marker of cellular apoptosis. Therefore, we evaluated the effects of the isolated compounds at four different concentrations of 0.5 µM, 1 µM, 5 µM, and 10 µM by flow cytometry (Figure 3). […] Therefore, prenylated dimeric flavonoid 8 may either reveal a non-apoptotic character of cell death or a predominantly antiproliferative rather than cytotoxic effect.
Figure 3 Effect of natural compounds on DNA fragmentation of PC-3 cells. Cells were treated with the investigated compounds for 24 h. The effects were analyzed by flow cytometry. Cells detected as sub-G1 population were considered to be apoptotic. Cisplatin (Cis) was used as a positive control. * p ≤ 0.05 (Student’s t-test).
A general note: In flow cytometry, cells or beads pass a laser one at a time.

Experiment [6] concerns PC-3 cells. The experiment is described as follows: Cell cycle progression by flow cytometry (PI staining). The experiment is classed as cell-based, human. The settings on record: 24 h (Figure 4). The procedure:
as §3
Next, we examined the effects of the isolated compounds on the cell cycle progression of PC-3 cells. For compounds 1–3, a significant accumulation of the cells in S-phase as well as slight accumulation in G2/M-phase was observed (Figure 4).
Figure 4 Treatment effects on the progression of the cell cycle of PC-3 cells. Cells were treated with the investigated compounds for 24 h. The effects were analyzed by flow cytometry. Cisplatin was used as a positive control. * p ≤ 0.05 (Student’s t-test).

[7] abbreviates: Homo sapiens, MRC9, MRC-9 cells.

For orientation: IC50 means the point on the concentration scale where inhibition reaches its midpoint. As to `N.N.[Cl][Pt][Cl]` [Cisplatin, reference compound], the IC50 in experiment [1] (MRC-9 cells) was 15.1 µM; in experiment [2] it was 21 µM; in experiment [3], 4.53 µM. Also, the “Selectivity index (MRC-9 vs. PC-3)” value in experiment [2] worked out at 0.72.
`CC(C)=CCC/C(C)=C/Cc1c(O)c(O)cc2c3c(oc12)-c1ccc(O)cc1OC3` [Compound 1]: the IC50 in experiment [1] (setting [7]) came to 48.5 µM; in experiment [2] (Homo sapiens), 6.73 µM; in experiment [3] (Homo sapiens), 20.1 µM. Also, the “Selectivity index (MRC-9 vs. PC-3)” value in experiment [2] came out at 7.21. In experiment [4], the “Effect on expression of mRNA corresponding to CDK1-9” value (shortened to “Effect on expression”) is “inhibitory effects”.
As to `CC(C)=CCC/C(C)=C/Cc1c(O)c(O)cc2c1O[C@H]1c3ccc(O)cc3OC[C@@H]21` [Compound 2], the half-maximal inhibitory concentration (IC50) in experiment [1] (setting [7]) stood at 37.6 µM; in experiment [2] (Homo sapiens), 5.24 µM; in experiment [3] (Homo sapiens), 13.8 µM. Also, the “Selectivity index (MRC-9 vs. PC-3)” value in experiment [2] came to 7.17. The “Effect on expression” value in experiment [4] is “inhibitory effects; also recorded: fairly active”.
As to `CC(C)=CCC/C(C)=C/Cc1c(O)c(O)cc2c1O[C@H]1c3cc(CC=C(C)C)c(O)cc3OC[C@@H]21` [Compound 3], the IC50 came to 16.8 µM in experiment [1] (setting [7]), 2.1 µM in experiment [2] (Homo sapiens) and 6.38 µM in experiment [3] (Homo sapiens). Also, the “Selectivity index (MRC-9 vs. PC-3)” value in experiment [2] came to 7.99. Also, the “Effect on expression” value in experiment [4] is “inhibitory effects; also recorded: strongest inhibitory effect”. Further, the “Apoptosis induction (DNA fragmentation, sub-G1 population)” value in the experiment on PC-3 cells [5] is reported as “most pronounced apoptosis-inducing effect”.
In the case of `CC(C)=CCC[C@]1(C)C=Cc2c(c(O)cc3c2O[C@H]2c4ccc(O)cc4OC[C@@H]32)O1` [Compound 4], the IC50 in experiment [1] (setting [7]) amounted to 27.2 µM; in experiment [2] (Homo sapiens) it was 16.4 µM; in experiment [3] (Homo sapiens) it was 29.5 µM. Also, in experiment [2], the “Selectivity index (MRC-9 vs. PC-3)” value is on record as 1.66.
On the same counts, the results for `CC(C)=CCC[C@@]1(C)C=Cc2c(c(O)cc3c2O[C@H]2c4ccc(O)cc4OC[C@@H]32)O1` [Compound 5] are 24.6 µM, 15.2 µM, 35.8 µM and 1.62.
`CC(C)=CCC/C(C)=C/Cc1c(O)c(O)cc(C(=O)C(=O)c2ccc(O)cc2O)c1O` [Compound 6]: the IC50 in experiment [1] (setting [7]) was greater than 50 µM; in experiment [2] (Homo sapiens) it was 19.3 µM; in experiment [3] (Homo sapiens), 46.9 µM. For the same molecule, in experiment [2], the “Selectivity index (MRC-9 vs. PC-3)” value is greater than 2.6.
Consider `COc1cc2c(c(C/C=C(\C)CCC=C(C)C)c1O)O[C@H]1c3ccc(O)cc3OC[C@@H]21` [Compound 7, (6aR,11aR)-8-O-methyl-6a,11a-dihydrolespedezol A2], for which the IC50 in experiment [1] (setting [7]) stood at 24.4 µM; in experiment [2] (Homo sapiens), 14.9 µM; in experiment [3] (Homo sapiens), 30.5 µM. Moreover, the “Selectivity index (MRC-9 vs. PC-3)” value in experiment [2] is 1.64. The “Effect on cell cycle progression” value in the experiment with PC-3 cells [6] is reported as “G1-phase arrest instead of S-phase arrest”. The “Effect on expression” value in experiment [4] was “did not exhibit this activity”.
For `CC(C)=CCC/C(C)=C/Cc1c(O)c(C(=O)c2c(-c3ccc(O)cc3O)oc3c(C/C=C(\C)CCC=C(C)C)c(O)c(O)cc23)cc2c1O[C@H]1c3ccc(O)cc3OC[C@@H]21` [Compound 8, Lespebicolin A], the IC50 in experiment [1] (setting [7]) came to 23.9 µM; in experiment [2] (Homo sapiens), 9.24 µM; in experiment [3] (Homo sapiens), 17.5 µM. Also, in experiment [2], the “Selectivity index (MRC-9 vs. PC-3)” value was found to be 2.59. Moreover, the “Effect on cell cycle progression” value with PC-3 cells [6] was “could not induce an S-phase cell cycle arrest”. In addition, in experiment [4], the “Effect on expression” value is given as “did not exhibit any pronounced effect on CDKs mRNA expression”. In addition, the “Apoptosis induction (DNA fragmentation, sub-G1 population)” value in the experiment with PC-3 cells [5] is given as “apart from structurally different lespebicolin A (8)”.
